Experimental data reported in PubChem BioAssay (NCI).
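These data come from cells grown in 96-well plates and exposed to compound for 48 hours at five concentrations. Here, GI50 denotes the concentration required for 50% inhibition of growth. TGI denotes the concentration required for complete inhibition of growth.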

Experiments:
Assay in all cases: NCI-60 cell line screen, 48 h
UACC-62 melanoma = tested on: UACC-62 melanoma
KM12 colon = tested on: KM12 colon
OVCAR-4 ovarian = tested on: OVCAR-4 ovarian
A498 renal = tested on: A498 renal
SF-295 CNS = tested on: SF-295 CNS
SK-MEL-28 melanoma = tested on: SK-MEL-28 melanoma
HOP-62 NSCLC = tested on: HOP-62 NSCLC
NCI/ADR-RES ovarian = tested on: NCI/ADR-RES ovarian
PC-3 prostate = tested on: PC-3 prostate
BT-549 breast = tested on: BT-549 breast

Row | Compound | TGI (UACC-62 melanoma) [µM] | TGI (KM12 colon) [µM] | TGI (OVCAR-4 ovarian) [µM] | TGI (A498 renal) [µM] | TGI (SF-295 CNS) [µM] | TGI (SK-MEL-28 melanoma) [µM] | TGI (HOP-62 NSCLC) [µM] | GI50 (UACC-62 melanoma) [µM] | GI50 (KM12 colon) [µM] | GI50 (OVCAR-4 ovarian) [µM] | GI50 (NCI/ADR-RES ovarian) [µM] | TGI (NCI/ADR-RES ovarian) [µM] | GI50 (A498 renal) [µM] | GI50 (SF-295 CNS) [µM] | GI50 (PC-3 prostate) [µM] | TGI (PC-3 prostate) [µM] | GI50 (SK-MEL-28 melanoma) [µM] | GI50 (HOP-62 NSCLC) [µM] | GI50 (BT-549 breast) [µM] | TGI (BT-549 breast) [µM]
1 | CCOc1ccc(N=Cc2ccc3ccccc3n2)cc1 | > 100 | > 100 | > 100 | > 100 | > 100 | > 100 | > 100 | – | – | – | – | – | – | – | – | – | – | – | – | –
2 | Cc1ccc(-c2cc(=O)c3cc(C)c(C)c(C(=O)O)c3o2)cc1[N+](=O)[O-] | > 100 | > 100 | > 100 | – | > 100 | > 100 | – | – | – | – | – | – | – | – | – | – | – | – | – | –
3 | CCCCCCCCCCCCC(NC(C)=O)(C(=O)OCC)C(=O)OCC | 19.6 | 28.9 | 22.2 | 26.6 | 26.9 | 26.9 | 27.5 | 4.88 | 11.1 | 10.4 | 10.3 | 23.7 | 13.5 | 11.2 | 7.03 | 21.1 | 13.5 | 13.9 | – | –
4 | CCN(CC)/[N+]([O-])=N/OCC(C)O (stereo not given) | > 100 | > 100 | – | > 100 | > 100 | > 100 | > 100 | – | – | – | – | – | – | – | – | – | – | – | – | –
5 | Cc1ccccc1C[P+](c1ccccc1)(c1ccccc1)c1ccccc1 | 31.6 | 11 | 9.39 | 12.7 | > 100 | 44 | 58.9 | 0.757 | 0.804 | 0.64 | > 100 | > 100 | 1.93 | 2.34 | – | – | 2.1 | 1.79 | 2.7 | 71.7
6 | N/C(=N\N=C\c1ccc(O)c(O)c1)NO | > 100 | > 100 | > 100 | > 100 | > 100 | > 100 | > 100 | – | – | – | – | – | – | – | – | – | – | – | – | –
7 | CC(CCC(=O)O)c1ccc(Br)cc1 (stereo not given) | > 100 | > 100 | > 100 | – | > 100 | > 100 | > 100 | – | – | – | – | – | – | – | – | – | – | – | – | –
8 | O=C(CC1SC(=Nc2ccccc2Cl)NC1=O)Nc1ccc(Cl)cc1 (stereo not given) | > 100 | > 100 | > 100 | > 100 | > 100 | > 100 | > 100 | – | – | – | – | – | – | – | – | – | – | – | – | –
9 | C/C=C(\C)C(=O)N1c2ccccc2CC1c1c(C)[nH]c2ccccc12 (stereo not given) | > 100 | > 100 | > 100 | > 100 | > 100 | > 100 | > 100 | – | – | – | – | – | – | – | – | – | – | – | – | –
10 | Fc1ccc2c(c1)cc1ccc3cccc4ccc2c1c34 | > 100 | > 100 | > 100 | > 100 | > 100 | > 100 | > 100 | – | – | – | – | – | – | – | – | – | – | – | – | –
11 | CCOC(=O)NC(=O)c1cn(C2OC(COC(=O)CCCCCCCCC(=O)OCC3OC(n4cc(C(=O)NC(=O)OCC)c(=O)[nH]c4=O)C4OC(C)(C)OC34)C3OC(C)(C)OC32)c(=O)[nH]c1=O (stereo not given) | > 100 | > 100 | > 100 | > 100 | > 100 | > 100 | > 100 | – | – | – | – | – | – | – | – | – | – | – | – | –
12 | CCCCCN(CCCCC)C(=O)[C@H](CCC(=O)OCc1ccccc1)NC(=O)c1cc2ccccc2[nH]1 | > 100 | > 100 | > 100 | > 100 | > 100 | > 100 | > 100 | – | – | – | – | – | – | – | – | – | – | – | – | –
13 | CN=C(N)NC | > 100 | > 100 | > 100 | > 100 | > 100 | > 100 | > 100 | – | – | – | – | – | – | – | – | – | – | – | – | –
14 | N.N.NCCCCCN.O=C([O-])CC(=O)[O-].O=C([O-])CC(=O)[O-].[Pt+4].[Pt+4] | > 100 | > 100 | – | > 100 | > 100 | > 100 | > 100 | 18.7 | > 100 | – | – | – | > 100 | 73.1 | – | – | > 100 | 43 | – | –
15 | Cn1cc2ccccc2c1-c1nc(F)nc(Nc2ccc(N)cc2)n1 | – | 41.9 | 64.3 | 21.6 | 50.4 | 30.6 | 55.8 | – | – | – | – | – | – | – | – | – | – | – | – | –
16 | CC(=O)Oc1cc(Cl)c(OC(C)=O)c2c(OC(C)=O)c(C)c(O[Si](C)(C)C(C)(C)C)cc12 | – | 26.1 | 26.2 | 4.77 | 23 | 11.9 | 34 | – | – | – | – | – | – | – | – | – | – | – | – | –
17 | Nc1nc(CC2(O)CCCCC2)cc(-c2ccccc2)n1 | > 100 | > 57 | > 76.8 | > 73.3 | > 77.3 | > 100 | > 80.6 | – | – | – | – | – | – | – | – | – | – | – | – | –
